Measured values published in patent EP0315434A2, “Pyridoxal hydrazone derivatives their production and use and pharmaceutical compositions containing the same” (YISSUM RESEARCH DEVELOPMENT COMPANY OF THE HEBREW …, priority 1987, dated 1989).

Columns and labels:
[1] = tested on: non-resistant strain of P. falciparum; conditions: molar concentration 1.5 x 10⁻⁵, according to Raventos-Suarez; cited from earlier work
[2] = stated as known; cited from earlier work
[3] = background statement, "probably"; cited from earlier work
[4] = Mobilization of iron from hepatic parenchymal stores in hypertransfused rats labelled with ⁵⁹Fe-ferritin; assay type: in vivo
Description: In each case, 40 mg of each compound was administered per animal in a single subcutaneous injection.
In vivo studies of chelating efficiency were performed in two models: (a) normal rats injected i.p. with 10 mg of either desferrioxamine B (DF), PIH of the prior art, PPH of Example 4 or PPHE from Example 5 labelled in vitro with ⁵⁹Fe; and (b) hypertransfused rats receiving twice 4 ml/100gm packed RBC intravenously 5 and 3 days prior to study (hematocrit 68%) and labelled with ⁵⁹Fe-ferritin injected i.v. 24h prior to iron chelating therapy as described previously. Drugs to be tested in the ⁵⁹Fe-ferritin model were given either by i.p. injection or by gastric tube at a dose of 40 mg per animal. Radioiron excretion and organ distribution were determined after 4 days
The radioactivity of spleen, weighed portions of the liver, and 1 ml samples of blood were determined in an automatic well type scintillation counter (Packard Autogamma Model 5360 Scintillation spectrometer). Spleen and kidney were counted as whole organs.
Whole body counts were performed in a small animal counter (Packard Model 446 Armac) scintillation detector. The excretion of radioiron following ⁵⁹Fe labelling was measured in animals confined to solitary metabolic cages with stainless steel grid bottoms, and stool and urine were collected separately.

[5] = Fate of ⁵⁹Fe tracer incubated with chelator and injected into normal rats (radioiron distribution and excretion); assay type: in vivo
Description: Table 1 describes the fate of ⁵⁹Fe tracer reincubated […] with 10 mg of some of the above iron chelators and then injected subcutaneously to groups of 4 normal rats. Numbers represent mean cumulative radioiron excretion within 4 days of injection. For comparison, spontaneous excretion of radioiron and the excretion of desferrioxamine (DF) bound radioiron are also given. […]
Spleen and kidney were counted as whole organs.
The excretion of radioiron following ⁵⁹Fe labelling was measured in animals confined to solitary metabolic cages with stainless steel grid bottoms, and stool and urine were collected separately.

[6] = hypertransfused rats, 40 mg per animal, after 4 days, Desferral i.p., route not printed for Ex. 4 and Ex. 5, mean ± SD
[7] = hypertransfused rats, 40 mg per animal, after 4 days, Desferral i.p., route not printed for Ex. 4 and Ex. 5, mean ± SD, listed as desferral
[8] = hypertransfused rats, 40 mg per animal, single subcutaneous injection
[9] = 10 mg chelator with ⁵⁹Fe, subcutaneous, normal rats, cumulative within 4 days
[10] = 10 mg chelator with ⁵⁹Fe, subcutaneous, normal rats, within 4 days

## CC(=O)N(O)CCCCCNC(=O)CCC(=O)N(O)CCCCCNC(=O)CCC(=O)N(O)CCCCCN [Desferral, desferrioxamine, reference compound]
[1]
  INHIBITION OF GROWTH OF P. falciparum % INHIBITION: complete after 96 Hrs. ^(*)
[2]
  oral efficiency: no oral efficiency
[3]
  half life in vivo: less than 1 hr
[4]; 40 mg i.p., hypertransfused rats, 4 days
  reduction in hepatocellular (hepatic) radioactivity: 20%
[4]; [6]
  ORGAN DISTRIBUTION AND EXCRETION OF ⁵⁹Fe-FERRITIN (%) BLOOD: 4.5±0.4%
  ORGAN DISTRIBUTION AND EXCRETION OF ⁵⁹Fe-FERRITIN (%) LIVER: 70.4± 6.0%
  ORGAN DISTRIBUTION AND EXCRETION OF ⁵⁹Fe-FERRITIN (%) STOOL: 23.3±0.1%
  ORGAN DISTRIBUTION AND EXCRETION OF ⁵⁹Fe-FERRITIN (%) TOTAL EXCRETION: 24.5±0.1%
[4]; hypertransfused rats, 40 mg per animal, after 4 days, Desferral i.p., route not printed for Ex. 4 and Ex. 5, mean ± SD, listed as DESFERRAL
  ORGAN DISTRIBUTION AND EXCRETION OF ⁵⁹Fe-FERRITIN (%) URINE: 1.2±0%
[4]; [7]
  ORGAN DISTRIBUTION AND EXCRETION OF ⁵⁹Fe-FERRITIN (%) STOOL: 23%
  ORGAN DISTRIBUTION AND EXCRETION OF ⁵⁹Fe-FERRITIN (%) URINE: negligible
[4]; [8]
  Ferritin-⁵⁹Fe distribution in % Blood: 4.5±0.4%
  Ferritin-⁵⁹Fe distribution in % Feces: 23.3±0.1%
  Ferritin-⁵⁹Fe distribution in % Liver: 70.4±6.0%
  Ferritin-⁵⁹Fe distribution in % Residual: 0%
  Ferritin-⁵⁹Fe distribution in % Spleen: 0.6±0.1%
  Ferritin-⁵⁹Fe distribution in % Urine: 1.2±0%
[4]; oral, 40 mg drug/animal by gastric tube, hypertransfused ⁵⁹Fe-ferritin labelled rats
  total radioiron excretion: 6.0%
[5]; [9]
  Radioiron Distribution in % Feces: 13.5±0.7%
  Radioiron Distribution in % Total excretion: 85.4±4.3%
  Radioiron Distribution in % Urine: 71.9±3.6%
[5]; [10]
  Radioiron Distribution in % Blood: 8.7±1.6%
  Radioiron Distribution in % Liver: 2.7±0.3%
  Radioiron Distribution in % Spleen: 0.14±0.03%
[5]; as in Table 1
  TOTAL EXCRETION OF RADIO-IRON IN RATS %: 85.4± 4.3%
